Source: publication PMC8315060, “N-terminus-independent activation of c-Src via binding to a tetraspan(in) TM4SF5 in hepatocellular carcinoma is abolished by the TM4SF5 C-terminal peptide application” (Theranostics, 2021)

Experiments:
Assay type in all cases: cell-based
[1] = target: T1, PTP1B binding to TM4SF5 (Homo sapiens, UniProt O14894); assay: Streptavidin pull-down of STrEP-TM4SF5 and immunoblot for PTP1B after TSAHC; settings: stable SNU449 cells, TSAHC 20 μM for 24 h, immunoblot, Figure 3E
T1 construct: TM4SF5WT (NM-003963, 197 amino acids); expressed in transfected cells; host or cells: SNU449 cells stably expressing STrEP-TM4SF5
T1 sequence (O14894 1-197): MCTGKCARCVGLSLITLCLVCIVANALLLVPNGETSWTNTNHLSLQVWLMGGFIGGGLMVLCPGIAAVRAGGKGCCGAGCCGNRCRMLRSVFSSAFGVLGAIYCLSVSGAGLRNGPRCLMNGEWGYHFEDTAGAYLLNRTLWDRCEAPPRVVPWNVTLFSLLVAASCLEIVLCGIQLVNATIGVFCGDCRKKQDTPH
Source text: Co-immunoprecipitation: Whole cell extracts were precipitated with anti-FLAG antibody (Cell Signaling Technology) or […]-precoated beads (Sigma-Aldrich) in a cold room overnight prior to immunoblotting with the indicated antibodies. For co-immunoprecipitation of endogenous proteins, whole cell lysates of endogenous TM4SF5-expressing HepG2 cells were precipitated with either anti-TM4SF5 [27] or c-Src (sc-8056, clone H-12) antibody prior to immunoblotting for FAK, c-Src, and TM4SF5. Immunoprecipitated proteins were boiled in 2× SDS-PAGE sample buffer before undergoing western blotting using standard protocols. Quantification of band intensity was performed as described above.
(A and B) SNU449 cells transiently transfected with the c-Src SH321 construct together with the indicated constructs were harvested (A). SNU761 cells stably expressing mock or FLAG-TM4SF5 were transiently transfected with the indicated constructs were harvested (B). The whole cell lysates (WCL) were precipitated with streptavidin beads, prior to immunoblotting. […] Quantitative comparison ratios were calculated from the blots by measurement of band intensities using Image J and normalization of them to those of loading controls. […]

[2] = target: T2, TM4SF5 (Homo sapiens, UniProt O14894); assay: Immunofluorescence of TM4SF5 localization after TSAHC; settings: TM4SF5-Flag cells, TSAHC 20 μM for 24 h, Figure 3E
T2 construct: TM4SF5WT (NM-003963, 197 amino acids); expressed in transfected cells
T2 sequence (O14894 1-197): T1 sequence (O14894 1-197)
Experimental: Indirect immunofluorescence: Cells maintained under normal culture conditions on glass coverslips were treated with peptides for 1 day in the absence or presence of 10 μM TSAHC, a specific TM4SF5 inhibitor [29]. The cells were incubated with either PBS (non-permeabilized) or 0.5% Triton X-100 in PBS (permeabilized) for 5 min at RT and then stained using an antibody against TAT (1:100 dilution, Cell Applications, Inc., San Diego, CA, USA). Cells treated with the CPPs were also fixed with 4% formaldehyde for 10 min at RT, incubated with 30 mM glycine for 30 min, permeabilized as described above, and then stained with antibodies against pY397FAK (Cat #: 611723, BD Transduction Laboratories, 1:500 dilution) or pY861FAK (sc-16663-R, Santa Cruz Biotechnology, 1:500 dilution). Phalloidin was also used to stain for F-actin. Immunofluorescent images were acquired on a confocal (Nikon eclipse Ti; Nikon, Melville, NY, USA) or a fluorescent microscope (BX51, Olympus, Japan).
(A and B) SNU449 cells transiently transfected with the c-Src SH321 construct together with the indicated constructs were harvested (A). […] Quantitative comparison ratios were calculated from the blots by measurement of band intensities using Image J and normalization of them to those of loading controls. […]

[3] = target: T3, TM4SF5 binding to c-Src (Homo sapiens, UniProt O14894); assay: TM4SF5 binding to c-Src after TSAHC treatment; settings: treatment of TSAHC, stated in the discussion
T3 construct: TM4SF5WT (NM-003963, 197 amino acids); expressed in transfected cells
T3 sequence (O14894 1-197): T1 sequence (O14894 1-197)
Source text: (A and B) SNU449 cells transiently transfected with the c-Src SH321 construct together with the indicated constructs were harvested (A). SNU761 cells stably expressing mock or FLAG-TM4SF5 were transiently transfected with the indicated constructs were harvested (B). The whole cell lysates (WCL) were precipitated with streptavidin beads, prior to immunoblotting. (C) SNU761 cells stably expressing mock or FLAG-TM4SF5WT (WT) were transiently transfected with the indicated construct and siRNAs against a scrambled sequence (siCont) or a sequence in PTP1B (siPTP1B). Immunoprecipitation from the WCL using anti-Flag-precoated sepharose beads was performed, before immunoblots. (D) SNU449 cells transfected with the indicated plasmids were processed for precipitation using streptavidin beads, prior to immunoblotting. (E) Stable SNU449 cells were treated with DMSO (-) or TSAHC (20 μM, +) for 24 h, before harvest, precipitation using streptavidin beads, and immunoblotting. Another cell set with TM4SF5-Flag and treated with DMSO or TSAHC as above was processed for immunofluorescence analysis. (F) SNU761 cells stably expressing TM4SF5WT were transiently transfected with the indicated siRNAs for 48 h, prior to transwell migration assay. […] Quantitative comparison ratios were calculated from the blots by measurement of band intensities using Image J and normalization of them to those of loading controls. […]

With `Cc1ccc(S(=O)(=O)Nc2ccc(C(=O)C=Cc3ccc(O)cc3)cc2)cc1` [TSAHC, 4-(p-toluenesulfonylamido)-4-hydroxychalcone] the “PTP1B binding to TM4SF5” value [1] was “reduced substantially”, the “membrane localization of TM4SF5” value [2] was “still showed membrane localization of TM4SF5” and the “TM4SF5 binding to c-Src” value [3] was “impaired TM4SF5 binding to c-Src”.
